Reference: patent publication US20140057788A1, “METHODS OF INHIBITING ETHYLENE RESPONSES IN PLANTS USING DICYCLOPROPENE COMPOUNDS” (North Carolina State University, priority 2007, published 2014)

Tests used:
bananas = assay: Protection of bananas from ethylene responses; type: in vivo, banana
Volatility = type: physicochemical
ethylene responses = assay: Anti-ethylene activity when applied as a gas; type: in vivo
pea plants = assay: Effect on etiolated pea plant growth in the presence of ethylene; type: in vivo; settings: pea plants grown in the presence of 1 ppm of ethylene, FIG. 1
Excerpt: FIG. 1. Effect of 1,6-dicyclopropenyl-hexane on etiolated plea plant growth.

C1=C(CCCCCCC2=CC2)C1 [1,6-dicyclopropenyl-hexane]
duration of protection from ethylene responses (bananas): at least 42 days
volatility (Volatility): volatile
active concentration (ethylene responses; applied as a gas): 0.3 nL L^−1
efficiency at different temperatures (ethylene responses; in vivo): work efficiently at different temperatures
anti-ethylene activity (pea plant growth) (pea plants): significant anti-ethylene activity
